Converted amounts (≈) assume the structure as drawn. The source made the active and inactive calls. No cut-off for these calls is given here.
Experiments:
A549 [1] = assay: Cell cycle arrest in A549 cells assessed as accumulation at G2/M phase at 40 ug/ml after 48 hrs; assay type: functional, Homo sapiens
A549 [2] = assay: Antiproliferative activity against human A549 cells after 48 hrs by MTT assay; assay type: functional, cell-based; conditions: A549, 48 h
A549 [3] = assay: Cell cycle arrest in A549 cells assessed as accumulation at G1 phase at 40 ug/ml after 48 hrs; assay type: functional, Homo sapiens
A549 [4] = assay: Induction of apoptosis in A549 cells assessed as DNA fragmentation at 40 ug/ml after 48 hrs by acridine orange assay; assay type: functional, cell-based; conditions: Homo sapiens
A549 [5] = assay: Cell cycle arrest in A549 cells assessed as accumulation at S phase at 40 ug/ml after 48 hrs; assay type: functional, Homo sapiens
A549 [6] = assay: Increase in Fas protein level in A549 cells at 40 ug/ml after 48 hrs relative to control; assay type: functional, Homo sapiens
A549 [7] = assay: Increase in P53 protein level in A549 cells at 40 ug/ml after 48 hrs relative to control; assay type: functional, Homo sapiens
A549 [8] = assay: Effect on morphology in A549 cells assessed as formation of apoptotic bodies at 40 ug/ml after 48 hrs; assay type: functional, cell-based; conditions: Homo sapiens

Row | IC50 (A549 [2]) | SMILES | Activity (A549 [1]) | Activity (A549 [3]) | Activity (A549 [4]) | Activity (A549 [5]) | Activity (A549 [6]) | Activity (A549 [7]) | Activity (A549 [8])
1 | 38 µg/mL (≈ 105 µM) | O=C1COC(COc2ccc([N+](=O)[O-])cc2)CN1c1ccc(Cl)cc1 (stereo not given) | 21.93% | 63.25% | Active | 14.82% | 21.53% | 23.98% | –
2 | 16.6 µg/mL (≈ 50.6 µM) | O=C1COC(COc2ccc([N+](=O)[O-])cc2)CN1c1ccccc1 (stereo not given) | 18.64% | 73.3% | Active | – | 40.97% | 33.73% | Active
3 | 22.9 µg/mL (≈ 65.9 µM) | COc1ccc(N2CC(COc3ccc(Cl)cc3)OCC2=O)cc1 (stereo not given) | – | 79.44% | Active | 10.99% | 23.45% | 22.41% | –
